Source: US20260297087A1, “Pyridoimidazolone Compounds, Preparation Thereof and Therapeutic Uses Thereof” (Sanofi, priority 2023, published 2026)

Columns and labels:
[1] = molecular target: T1, ERK5 (activated catalytic domain) (Homo sapiens, UniProt Q13164); experiment: Cell-Free Assay of ERK5 Inhibition (Time-Resolved FRET, 4EBP1 peptide phosphorylation); assay type: biochemical; settings: ERK5 catalytic domain 4 nM, 1 mM ATP, 1 μM biotinylated 4EBP1 peptide, 30 min at 37° C.; mean where repeated; read-out: Cell-free assay (IC50 in nM)
T1 construct: purchased CarnaBiosciences 04-146
Protocol: (§1) Two assays were performed to assess the ERK5 inhibitory activity of compounds of the Examples, a cell-based assay and a cell-free biochemical assay. Where repeat measurements were taken, the value reported is a mean average.
An assay was performed to measure the capacity of each compound to inhibit ERK5 enzymatic activity. Compound potency was evaluated by Time-Resolved Forster Resonance Energy Transfer (FRET system). The activated catalytic domain of protein ERK5 (CarnaBiosciences #04-146) was mixed at 4 nM with varying concentrations of compound and incubated for 30 minutes at room temperature. A mixture of 1 mM ATP and 1 μM biotinylated synthetic peptide was added (Biosyntan GmbH). This synthetic peptide represents amino acids 30-52 of Eukaryotic translation initiation factor 4E-binding protein 1 (see, e.g., the sequence under accession No. NP_004086.1) biotinylated at the N-terminus. After 30 minutes at 37° C., the peptide phosphorylation by ERK5 was measured by addition of FRET reagents consisting of 12.5 μg/ml Streptavidin-XL665, 1 nM Anti-P-4EBP1 antibody and 300 ng/ml Anti-rabbit-K antibody. Following 90 minutes at room temperature fluorescent signals were read on the Pherastar FSX multimod detector from BMG Labtech (Exc° 340 nm, Em1 620 nm, Em2 665 nm). The IC50 values represent the concentration of compound which inhibits the measurable fluorescence signal by 50% as compared to the DMSO only control.

ERK5 = molecular target: T2, ERK5 (Homo sapiens, UniProt Q13164); experiment: Inhibition of Cellular ERK5 Activity (cell-based assay, MEF2 luciferase reporter in SN12C cells); settings: renal cancer cell line SN12C, doxycycline-induced MEKSDD, mean where repeated
T2 construct: MEF2-luciferase reporter
Protocol: as §1
The renal cancer cell line SN12C was transduced by a lentivirus pGreenFire1 MEF2 EF1 Neo (ref TR030VA-N) from SBI using standard infection protocol. pGreenFire1 MEF2 EF1 Neo allows the expression of luciferase gene under the control of minimal promoter with MEF2 transcriptional response elements. Cells harboring the reporter construct were selected by geneticin treatment. The selected cells were then transposed by a piggyback based plasmid pCM4007 allowing the expression of constitutively activated MEKSDD under control of TREG3 promoter, a doxycycline regulated promoter. Transposed cells were selected by puromycin treatment. Upon doxycycline treatment (1p g/ml) MEKSDD was expressed. MEKSDD activates ERK5 that phosphorylates MEF2C protein. Activated MEF2C protein can bind to its transcriptional response elements. Then the luciferase is expressed. In a 96-well plate (96F nuncleon refl37101 thermofisher), 50,000 cells were inoculated in 142.5 μl of RPMI medium containing 10% fetal calf serum, 1% glutamine, and 1 μg/ml doxycycline. After 24 hours, compounds were added in 7.5 μl culture medium (with 2% DMSO to give a final concentration of 0.1%) in order to obtain the desired concentration (0.3-1000 nM). The luciferase activity was measured using the Kit Bright Glo Luminescent Cell Assay Cat E2610 (Promega) according to the manufacturer's protocol. Luminescence was determined using 0.2 second reading/well using a Tecan SPARK. IC50 values were calculated using XLFIT5 for Microsoft Excel using method 205. The IC50 values represent the concentration of compound which inhibits the measurable luminescence signal by 50% as compared to DMSO-treated control cells.

T2 sequence (Q13164 whole entry): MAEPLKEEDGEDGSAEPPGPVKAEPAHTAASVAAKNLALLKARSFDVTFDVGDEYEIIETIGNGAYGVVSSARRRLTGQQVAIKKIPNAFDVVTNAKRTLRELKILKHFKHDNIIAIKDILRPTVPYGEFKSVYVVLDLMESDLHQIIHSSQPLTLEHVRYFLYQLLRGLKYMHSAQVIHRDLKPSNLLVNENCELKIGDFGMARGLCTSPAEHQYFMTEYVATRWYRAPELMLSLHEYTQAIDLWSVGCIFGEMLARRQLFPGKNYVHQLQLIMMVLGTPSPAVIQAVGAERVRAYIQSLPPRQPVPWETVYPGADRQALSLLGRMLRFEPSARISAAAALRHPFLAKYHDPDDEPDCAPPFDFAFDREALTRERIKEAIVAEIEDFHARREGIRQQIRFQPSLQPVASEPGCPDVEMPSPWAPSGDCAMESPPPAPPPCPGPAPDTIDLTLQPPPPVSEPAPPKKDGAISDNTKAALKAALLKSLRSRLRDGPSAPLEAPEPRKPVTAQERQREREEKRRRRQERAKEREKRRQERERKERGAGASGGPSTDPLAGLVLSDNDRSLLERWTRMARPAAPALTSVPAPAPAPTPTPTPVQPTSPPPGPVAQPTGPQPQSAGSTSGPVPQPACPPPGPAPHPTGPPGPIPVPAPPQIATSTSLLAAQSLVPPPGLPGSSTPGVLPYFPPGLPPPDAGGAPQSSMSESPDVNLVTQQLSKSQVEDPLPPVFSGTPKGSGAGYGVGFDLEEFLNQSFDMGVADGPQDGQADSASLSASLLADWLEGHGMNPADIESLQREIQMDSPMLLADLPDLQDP
T1 sequence (Q13164 55-347 limits assumed): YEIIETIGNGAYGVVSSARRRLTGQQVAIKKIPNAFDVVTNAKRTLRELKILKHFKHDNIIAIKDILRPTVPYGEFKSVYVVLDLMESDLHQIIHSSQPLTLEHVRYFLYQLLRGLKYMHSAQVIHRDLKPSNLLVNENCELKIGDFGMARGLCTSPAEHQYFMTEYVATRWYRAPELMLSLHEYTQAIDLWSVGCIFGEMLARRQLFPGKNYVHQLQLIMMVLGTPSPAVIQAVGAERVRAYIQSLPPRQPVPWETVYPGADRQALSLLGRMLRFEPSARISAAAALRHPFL

| Compound | IC50 [1] [nM] | IC50 (ERK5) [nM] |
| --- | --- | --- |
| Nc1cc(OC(F)(F)F)ccc1C(=O)N1CCC(n2c(=O)[nH]c3ncc(OC4CCOC4)cc32)CC1 (racemic) [Example 55, (rac)-1-[1-[2-amino-4-(trifluoromethoxy)benzoyl]-4-piperidyl]-6-[tetrahydrofuran-3-yl]oxy-3H-imidazo[4,5-b]pyridin-2-one] | 87 | 83 |
| Nc1cc(OC(F)(F)F)ccc1C(=O)N1CCC(n2c(=O)[nH]c3ncc(OC4CCOC4)cc32)CC1 (single isomer, unassigned; isomer 2) [Example 44, 1-[1-[2-amino-4-(trifluoromethoxy)benzoyl]-4-piperidyl]-6-[tetrahydrofuran-3-yl]oxy-3H-imidazo[4,5-b]pyridin-2-one, Isomer 2] | 310 | 169 |
| CN1CCC(Oc2cnc3[nH]c(=O)n(C4CCN(C(=O)c5ccc(OC(F)(F)F)cc5N)CC4)c3c2)C1 (single isomer, unassigned; isomer 2) [Example 48, 1-[1-[2-amino-4-(trifluoromethoxy)benzoyl]-4-piperidyl]-6-[1-methylpyrrolidin-3-yl]oxy-3H-imidazo[4,5-b]pyridin-2-one, Isomer 2] | 78 | 117 |
| Nc1cc(OC(F)(F)F)ccc1C(=O)N1CCC(n2c(=O)[nH]c3ncc(OC4CCOCC4)cc32)CC1 [Example 1, 1-[1-[2-amino-4-(trifluoromethoxy)benzoyl]-4-piperidyl]-6-tetrahydropyran-4-yloxy-3H-imidazo[4,5-b]pyridin-2-one] | 29 | 48 |
| Nc1cc(OC(F)(F)F)ccc1C(=O)N1CCC(n2c(=O)[nH]c3ncc(C4CCOCC4)cc32)CC1 [Example 2, 1-[1-[2-amino-4-(trifluoromethoxy)benzoyl]-4-piperidyl]-6-tetrahydropyran-4-yl-3H-imidazo[4,5-b]pyridin-2-one] | 48 | 68 |
| Nc1cc(OC(F)(F)F)ccc1C(=O)N1CCC(n2c(=O)[nH]c3ncc(N4CCOCC4)cc32)CC1 [Example 3, 1-[1-[2-amino-4-(trifluoromethoxy)benzoyl]-4-piperidyl]-6-N-morpholino-3H-imidazo[4,5-b]pyridin-2-one] | 77 | 72 |
| CN1CCC(Oc2cnc3[nH]c(=O)n(C4CCN(C(=O)c5ccc(OC(F)(F)F)cc5)CC4)c3c2)CC1 [Example 5, 6-[(1-methyl-4-piperidyl)oxy]-1-[1-[4-(trifluoromethoxy)benzoyl]-4-piperidyl]-3H-imidazo[4,5-b]pyridin-2-one] | 150 | 206 |
| O=C(c1ccc(OC(F)(F)F)cc1)N1CCC(n2c(=O)[nH]c3ncc(N4CCOCC4)cc32)CC1 [Example 8, 6-N-morpholino-1-[1-[4-(trifluoromethoxy)benzoyl]-4-piperidyl]-3H-imidazo[4,5-b]pyridin-2-one] | 505 | 279 |
| Nc1cc(OC(F)(F)F)ccc1C(=O)N1CCC(n2c(=O)[nH]c3ncc(N4CCO[C@H](CO)C4)cc32)CC1 [Example 10, 1-[1-[2-amino-4-(trifluoromethoxy)benzoyl]-4-piperidyl]-6-[(2S)-2-(hydroxymethyl)morpholin-4-yl]-3H-imidazo[4,5-b]pyridin-2-one] | 103 | 870 |
| O=C(c1ccc(OC(F)(F)F)cc1)N1CCC(n2c(=O)[nH]c3ncc(N4CCO[C@H](CO)C4)cc32)CC1 [Example 12, 6-[(2S)-2-(Hydroxymethyl)morpholin-4-yl]-1-[1-[4-(trifluoromethoxy)benzoyl]-4-piperidyl]-3H-imidazo[4,5-b]pyridin-2-one] | 442 | 1860 |
| Nc1cc(OC(F)(F)F)ccc1C(=O)N1CCC(n2c(=O)[nH]c3ncc(N4CCO[C@@H](CO)C4)cc32)CC1 [Example 13, 1-[1-[2-Amino-4-(trifluoromethoxy)benzoyl]-4-piperidyl]-6-[(2R)-2-(hydroxymethyl)morpholin-4-yl]-3H-imidazo[4,5-b]pyridin-2-one] | 225 | 1330 |
| Nc1cc(S(F)(F)(F)(F)F)ccc1C(=O)N1CCC(n2c(=O)[nH]c3ncc(C4CCOCC4)cc32)CC1 [Example 14, 1-[1-[2-Amino-4-(pentafluoro-λ^6-sulfanyl)benzoyl]-4-piperidyl]-6-tetrahydropyran-4-yl-3H-imidazo[4,5-b]pyridin-2-one] | 122 | 118 |

Second part, the compound after the results:

| IC50 [1] [nM] | IC50 (ERK5) [nM] | Compound |
| --- | --- | --- |
| 1620 | 361 | O=C(c1ccc(S(F)(F)(F)(F)F)cc1)N1CCC(n2c(=O)[nH]c3ncc(C4CCOCC4)cc32)C1 (racemic) [Example 50, (rac)-1-[1-[4-(pentafluoro-λ^6-sulfanyl)benzoyl]pyrrolidin-3-yl]-6-tetrahydropyran-4-yl-3H-imidazo[4,5-b]pyridin-2-one] |
| 430 | 96 | O=C(c1ccc(OC(F)(F)F)cc1)N1CCC(n2c(=O)[nH]c3ncc(OC4CCOC4)cc32)CC1 (racemic) [Example 56, (rac)-6-tetrahydrofuran-3-yloxy-1-[1-[4-(trifluoromethoxy)benzoyl]-4-piperidyl]-3H-imidazo[4,5-b]pyridin-2-one] |
| 150 | 74 | Nc1cc(OC(F)(F)F)ccc1C(=O)N1CCC(n2c(=O)[nH]c3ncc(OC4CCOC4)cc32)CC1 (single isomer, unassigned; isomer 1) [Example 43, 1-[1-[2-amino-4-(trifluoromethoxy)benzoyl]-4-piperidyl]-6-[tetrahydrofuran-3-yl]oxy-3H-imidazo[4,5-b]pyridin-2-one, Isomer 1] |
| 239 | 273 | CN1CCC(Oc2cnc3[nH]c(=O)n(C4CCN(C(=O)c5ccc(OC(F)(F)F)cc5N)CC4)c3c2)C1 (single isomer, unassigned; isomer 1) [Example 47, 1-[1-[2-amino-4-(trifluoromethoxy)benzoyl]-4-piperidyl]-6-[1-methylpyrrolidin-3-yl]oxy-3H-imidazo[4,5-b]pyridin-2-one, Isomer 1] |
| 135 | 132 | O=C(c1ccc(OC(F)(F)F)cc1)N1CCC(n2c(=O)[nH]c3ncc(OC4CCOCC4)cc32)CC1 [Example 4, 6-tetrahydropyran-4-yloxy-1-[1-[4-(trifluoromethoxy)benzoyl]-4-piperidyl]-3H-imidazo[4,5-b]pyridin-2-one] |
| 63 | 248 | CN1CCC(Oc2cnc3[nH]c(=O)n(C4CCN(C(=O)c5ccc(OC(F)(F)F)cc5N)CC4)c3c2)CC1 [Example 7, 1-[1-[2-amino-4-(trifluoromethoxy)benzoyl]-4-piperidyl]-6-[(1-methyl-4-piperidyl)oxy]-3H-imidazo[4,5-b]pyridin-2-one] |
| 1050 | 1830 | O=C(c1ccc(OC(F)(F)F)cc1)N1CCC(n2c(=O)[nH]c3ncc(N4CCO[C@@H](CO)C4)cc32)CC1 [Example 11, 6-[(2R)-2-(hydroxymethyl)morpholin-4-yl]-1-[1-[4-(trifluoromethoxy)benzoyl]-4-piperidyl]-3H-imidazo[4,5-b]pyridin-2-one] |
| 198 | 178 | O=C(c1ccc(OC(F)(F)F)cc1)N1CCC(n2c(=O)[nH]c3ncc(C4CCCC4)cc32)CC1 [Example 17, 6-Cyclopentyl-1-[1-[4-(trifluoromethoxy)benzoyl]-4-piperidyl]-3H-imidazo[4,5-b]pyridin-2-one] |
